{"source": "paper PMC9249791", "about": "“Molecular dissection of the glutamine synthetase-GlnR nitrogen regulatory circuitry in Gram-positive bacteria” (Nature Communications, 2022)", "assay_type_in_all_cases": "binding", "key": {"[1]": {"target": "T1, Sa GS (Staphylococcus aureus, UniProt P0A040)", "T1 construct": "gene glnA; full-length, synthetic gene in pET15b, N-terminal His-tag, E. coli C41(DE3); tag removed only for crystallography; dodecamer (double hexamer ring)", "T1 sequence (P0A040 1-446)": "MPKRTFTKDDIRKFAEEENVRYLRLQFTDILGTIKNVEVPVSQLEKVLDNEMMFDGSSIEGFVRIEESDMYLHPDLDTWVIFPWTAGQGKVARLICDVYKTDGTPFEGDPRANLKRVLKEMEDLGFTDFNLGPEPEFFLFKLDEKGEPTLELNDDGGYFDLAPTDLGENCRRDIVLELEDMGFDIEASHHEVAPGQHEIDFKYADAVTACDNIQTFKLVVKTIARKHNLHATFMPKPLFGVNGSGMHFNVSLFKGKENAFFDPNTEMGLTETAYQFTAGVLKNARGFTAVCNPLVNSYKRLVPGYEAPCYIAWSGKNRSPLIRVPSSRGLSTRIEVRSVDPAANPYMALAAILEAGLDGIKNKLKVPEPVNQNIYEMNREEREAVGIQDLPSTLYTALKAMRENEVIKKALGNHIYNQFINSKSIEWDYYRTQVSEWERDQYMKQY", "test": "isothermal titration calorimetry"}, "[2]": {"target": "T2, Lm GS (Listeria monocytogenes, UniProt A0A5D5GA79)", "T2 construct": "gene glnA; full-length, synthetic gene in pET15b, N-terminal His-tag, E. coli C41(DE3); apo dodecamer", "T2 sequence (A0A5D5GA79 1-444)": "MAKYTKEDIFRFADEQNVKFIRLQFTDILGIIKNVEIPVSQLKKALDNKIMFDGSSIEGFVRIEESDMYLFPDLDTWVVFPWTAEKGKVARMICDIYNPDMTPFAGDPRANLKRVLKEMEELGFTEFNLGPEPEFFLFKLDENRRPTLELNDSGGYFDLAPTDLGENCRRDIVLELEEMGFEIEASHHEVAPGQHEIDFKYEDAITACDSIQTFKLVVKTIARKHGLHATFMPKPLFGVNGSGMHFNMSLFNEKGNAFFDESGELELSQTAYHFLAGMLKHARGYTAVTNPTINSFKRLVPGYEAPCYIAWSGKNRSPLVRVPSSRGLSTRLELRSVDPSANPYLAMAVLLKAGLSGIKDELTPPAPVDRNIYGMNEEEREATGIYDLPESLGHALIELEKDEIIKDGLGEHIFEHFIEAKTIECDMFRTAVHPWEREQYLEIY", "test": "cryo-EM structure […] Å", "details": "20 mM glutamine, 5 mM MgCl2, pH 7.5, with GlnR C-tail peptide; overlaps glutamate site"}, "[3]": {"target": "T3, Pp GS (Paenibacillus polymyxa, UniProt A0A0F0G8G2)", "T3 construct": "gene glnA2; full-length, synthetic gene in pET15b, N-terminal His-tag (removed by thrombin for crystallography), E. coli C41(DE3)", "T3 sequence (A0A0F0G8G2 1-442)": "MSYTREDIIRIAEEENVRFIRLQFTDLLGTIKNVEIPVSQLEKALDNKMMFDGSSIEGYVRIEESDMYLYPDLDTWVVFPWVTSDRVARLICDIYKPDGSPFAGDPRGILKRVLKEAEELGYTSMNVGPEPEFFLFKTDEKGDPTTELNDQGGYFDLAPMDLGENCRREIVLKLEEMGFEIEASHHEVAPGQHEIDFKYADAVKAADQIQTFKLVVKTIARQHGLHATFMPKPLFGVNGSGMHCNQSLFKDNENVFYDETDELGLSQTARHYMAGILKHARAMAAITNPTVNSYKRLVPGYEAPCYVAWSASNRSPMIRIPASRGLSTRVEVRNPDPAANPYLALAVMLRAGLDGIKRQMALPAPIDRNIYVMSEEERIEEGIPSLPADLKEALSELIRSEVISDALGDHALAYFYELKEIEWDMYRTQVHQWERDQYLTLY", "test": "cryo-EM structure […]-2.[…] Å", "details": "20 mM glutamine, 5 mM MgCl2, pH 7.5, with GlnR C-tail peptide; overlaps glutamate site"}, "[4]": {"target": "T4, Bs GS (Bacillus subtilis, UniProt P12425)", "T4 construct": "gene glnA; full-length, synthetic gene in pET15b, N-terminal His-tag, E. coli C41(DE3); apo dodecamer", "T4 sequence (P12425 1-444)": "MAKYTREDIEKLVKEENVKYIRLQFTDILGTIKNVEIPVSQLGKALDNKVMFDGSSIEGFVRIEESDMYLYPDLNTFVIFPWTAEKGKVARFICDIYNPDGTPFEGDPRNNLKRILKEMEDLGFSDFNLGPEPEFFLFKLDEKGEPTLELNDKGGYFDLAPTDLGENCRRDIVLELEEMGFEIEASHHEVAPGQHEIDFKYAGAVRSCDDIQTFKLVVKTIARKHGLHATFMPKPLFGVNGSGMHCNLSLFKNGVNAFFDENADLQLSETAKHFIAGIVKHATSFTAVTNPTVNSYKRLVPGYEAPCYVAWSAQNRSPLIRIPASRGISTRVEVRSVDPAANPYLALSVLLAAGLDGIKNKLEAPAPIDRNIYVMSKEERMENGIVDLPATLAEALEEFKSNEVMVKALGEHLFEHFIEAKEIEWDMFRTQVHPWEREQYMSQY", "test": "cryo-EM structure […] Å", "details": "20 mM glutamine, 5 mM MgCl2, pH 7.5, with GlnR C-tail peptide; overlaps glutamate site"}}}
{"smiles": "NC(=O)CC[C@H](N)C(=O)O", "note": "[glutamine]", "values": [{"measurement": "Kd", "setting": "[1]", "result": 500, "unit": "µM"}, {"measurement": "cryo-EM structure 2.61 Å", "setting": "[2]", "result": "Glutamine binds identically in each structure to form FBI-GS"}, {"measurement": "cryo-EM structure 2.07-2.28 Å", "setting": "[3]", "result": "Glutamine binds identically in each structure to form FBI-GS"}, {"measurement": "cryo-EM structure 1.96 Å", "setting": "[4]", "result": "Glutamine binds identically in each structure to form FBI-GS"}]}
